Laboratory results published in patent publication US10961200B2, “Small molecule inhibitors of lactate dehydrogenase and methods of use thereof” (THE UNITED STATES OF AMERICA, AS REPRESENTED BY THE …, priority 2014, dated 2021).
pIC50: −log10 of the molar value.

What was measured:
Human LDHA = Human LDHA (Homo sapiens (Human), UniProt P00338); assay: human LDHA primary biochemical assay (resazurin/diaphorase coupled, fluorescence); settings: LDHA inhibitory activity, activity level based on IC50 (Table 7)
Source text: Test compounds were placed in a Greiner Bio-One (Monroe, N.C.) 1536-well black solid bottom assay plate. 200 millimolar (mM) Tris HCl, pH 7.4, 100 micromolar […] EDTA and 0.01% TWEEN-20™, final concentration, was used as the assay buffer. The LDHA reagent was 2 nanomolar (nM) Human LDHA (Meridian Life Science, Inc., Memphis, Tenn.), final concentration, in assay buffer.

MiaPaCa2 cells = assay: cell-based HT lactate assay, colorimetric/fluorometric detection (inhibition of lactate production); settings: class symbols, 0 to 3 pluses

Row | SMILES | pIC50 (Human LDHA) | pIC50 (MiaPaCa2 cells) | pIC50 (MiaPaCa2 cells; Homo sapiens, MIA PaCa-2)
1 | NS(=O)(=O)c1ccc(Cc2c(-c3ccc(F)c(C#CC4(O)CCOC4)c3)nn(-c3nc(C(=O)O)cs3)c2CC2CC2)cc1F (stereo not drawn) [Compound 418] | > 7.00 | 5.00 to 6.00 | 
2 | NS(=O)(=O)c1ccc(Cc2c(-c3ccc(F)c(C#CC4(F)CCOC4)c3)nn(-c3nc(C(=O)O)cs3)c2CC2CC2)cc1F (stereo not drawn) [Compound 419] | > 7.00 | > 6.00 | 
3 | CC#Cc1cc(-c2nn(-c3nc(C(=O)OCC)cs3)c(CC3CC3)c2Cc2ccc(S(N)(=O)=O)c(F)c2)ccc1F [Compound 420] | 4.24 to 6.00 | < 4.24 | 
4 | N[S+](=O)([O-])c1ccc(Cc2c(-c3ccc(F)c(C#CCC4CCCO4)c3)nn(-c3nc(C(=O)O)cs3)c2CC2CC2)cc1F (stereo not drawn) [Compound 421] | > 7.00 | 5.00 to 6.00 | 
5 | CC#Cc1cc(-c2nn(-c3nc(C(=O)O)cs3)c(CC3CC3)c2Cc2cccc([S+](N)(=O)[O-])c2)ccc1F [Compound 422] | > 7.00 | 4.24 to 5.00 | 
6 | NS(=O)(=O)c1ccc(Cc2c(-c3ccc(F)c(C#CC4CCOC4)c3)nn(-c3nc(C(=O)O)cs3)c2CC2CC2)cc1F (stereo not drawn) [Compound 423] | > 7.00 | > 6.00 | 
7 | CCOC(=O)c1csc(-n2nc(-c3cccc(C#CC4CCCC4)c3)c(Cc3ccc(S(N)(=O)=O)c(F)c3)c2CC2CC2)n1 [Compound 428] | < 4.24 | < 4.24 | 
8 | CCOC(=O)c1csc(-n2nc(-c3ccc(F)c(C#CC4CCCC4)c3)c(Cc3ccc([S+](N)(=O)[O-])cc3)c2CC2CC2)n1 [Compound 429] | 4.24 to 6.00 | < 4.24 | 
9 | N[S+](=O)([O-])c1ccc(Cc2c(-c3ccc(F)c(C#CC4CCCC4)c3)nn(-c3nc(C(=O)O)cs3)c2CC2CC2)cc1 [Compound 430] | > 7.00 | > 6.00 | 
10 | N[S+](=O)([O-])c1ccc(Cc2c(-c3ccc(F)c(C#CC4CCCC4)c3)nn(-c3nc(C(=O)O)cs3)c2C2CC2)cc1F [Compound 431] | > 7.00 | > 6.00 | 
11 | N[S+](=O)([O-])c1ccc(Cc2c(-c3cccc(C#CC4CCCC4)c3)nn(-c3nc(C(=O)O)cs3)c2CC2CC2)cc1F [Compound 432] | > 7.00 | > 6.00 | 
12 | N[S+](=O)([O-])c1ccc(Cc2c(-c3ccc(F)c(C#CC4CC4)c3)nn(-c3nc(C(=O)O)cs3)c2CC2CC2)cc1 [Compound 433] | > 7.00 | > 6.00 | 
13 | CCOC(=O)c1csc(-n2nc(-c3ccc(F)c(C#CC4CCCC4)c3)c(Cc3ccc(S(N)(=O)=O)c(F)c3)c2C2CC2)n1 [Compound 434] | 4.24 to 6.00 | < 4.24 | 
14 | CCOC(=O)c1csc(-n2nc(-c3ccc(F)c(C#CC4CC4)c3)c(Cc3ccc(S(N)(=O)=O)cc3)c2CC2CC2)n1 [Compound 435] | 4.24 to 6.00 | < 4.24 | 
15 | NS(=O)(=O)c1ccc(Cc2c(-c3ccc(F)c(C#CC4(F)CCCC4)c3)nn(-c3nc(C(=O)O)cs3)c2CC2CC2)cc1F [Compound 436] | > 7.00 | > 6.00 | 
16 | NS(=O)(=O)c1ccc(Cc2c(-c3ccc(F)c(C#CCC4CC4)c3)nn(-c3nc(C(=O)O)cs3)c2CC2CC2)cc1F [Compound 437] | > 7.00 | > 6.00 | 
17 | N[S+](=O)([O-])c1cccc(Cc2c(-c3ccc(F)c(C#CC4CCCC4)c3)nn(-c3nc(C(=O)O)cs3)c2CC2CC2)c1 [Compound 438] | 6.00 to 7.00 | 5.00 to 6.00 | 
18 | NS(=O)(=O)c1ccc(Cc2c(-c3ccc(F)c(C#CC(F)F)c3)nn(-c3nc(C(=O)O)cs3)c2CC2CC2)cc1F [Compound 440] | > 7.00 | 5.00 to 6.00 | 
19 | N#CC#Cc1cc(-c2nn(-c3nc(C(=O)O)cs3)c(CC3CC3)c2Cc2ccc(S(N)(=O)=O)c(F)c2)ccc1F [Compound 442] | > 7.00 | 5.00 to 6.00 | 
20 | CC(F)C#Cc1cc(-c2nn(-c3nc(C(=O)O)cs3)c(CC3CC3)c2Cc2ccc([S+](N)(=O)[O-])c(F)c2)ccc1F (stereo not drawn) [Compound 443] | > 7.00 |  | > 6.00
21 | NS(=O)(=O)c1ccc(Cc2c(-c3ccc(F)c(C4=CCCC4)c3)nn(-c3nc(C(=O)O)cs3)c2CC2CC2)cc1F [Compound 444] | > 7.00 | > 6.00 | 
22 | CC(C)C#Cc1cc(-c2nn(-c3nc(C(=O)O)cs3)c(CC3CC3)c2Cc2ccc([S+](N)(=O)[O-])c(F)c2)ccc1F [Compound 445] | > 7.00 | > 6.00 | 
23 | NS(=O)(=O)c1ccc(Cc2c(-c3ccc(F)c(C#CC4CCC4)c3)nn(-c3nc(C(=O)O)cs3)c2CC2CC2)cc1F [Compound 446] | > 7.00 | > 6.00 | 
24 | NS(=O)(=O)c1ccc(Cc2cn(-c3nc(C(=O)O)cs3)nc2-c2ccc(F)c(-c3cccc(F)c3)c2)cc1 [Compound 458, 2-(3-(3′,6-difluoro-[1,1′-biphenyl]-3-yl)-4-(4-sulfamoylbenzyl)-1H-pyrazol-1-yl)thiazole-4-carboxylic acid] | > 7.00 |  | 5.00 to 6.00
25 | Cc1ccc(-c2nn(-c3nc(C(=O)O)cs3)c(CC3CC3)c2Cc2ccc(S(N)(=O)=O)cc2)cc1OC1CCCC1 [Compound 467, 2-(3-(3-(cyclopentyloxy)-4-methylphenyl)-5-(cyclopropylmethyl)-4-(4-sulfamoylbenzyl)-1H-pyrazol-1-yl)thiazole-4-carboxylic acid] | > 7.00 |  | > 6.00
26 | NS(=O)(=O)c1ccc(Cc2c(-c3cc(OC4CCCC4)ccc3F)nn(-c3nc(C(=O)O)cs3)c2CC2CC2)cc1 [Compound 468, 2-(3-(5-(cyclopentyloxy)-2-fluorophenyl)-5-(cyclopropylmethyl)-4-(4-sulfamoylbenzyl)-1H-pyrazol-1-yl)thiazole-4-carboxylic acid] | 6.00 to 7.00 |  | 5.00 to 6.00
27 | NS(=O)(=O)c1ccc(Cc2c(-c3ccc(F)c(OCC4CCCO4)c3)nn(-c3nc(C(=O)O)cs3)c2CC2CC2)cc1F (stereo not drawn) [Compound 469, 2-(5-(cyclopropylmethyl)-3-(4-fluoro-3-((tetrahydrofuran-2-yl)methoxy)phenyl)-4-(3-fluoro-4-sulfamoylbenzyl)-1H-pyrazol-1-yl)thiazole-4-carboxylic acid] | > 7.00 |  | 5.00 to 6.00
28 | NS(=O)(=O)c1ccc(Cc2c(-c3ccc(F)c(OCC4CCOC4)c3)nn(-c3nc(C(=O)O)cs3)c2CC2CC2)cc1F (stereo not drawn) [Compound 470, 2-(5-(cyclopropylmethyl)-3-(4-fluoro-3-((tetrahydrofuran-3-yl)methoxy)phenyl)-4-(3-fluoro-4-sulfamoylbenzyl)-1H-pyrazol-1-yl)thiazole-4-carboxylic acid] | > 7.00 |  | 5.00 to 6.00
29 | NS(=O)(=O)c1ccc(Cc2c(-c3ccc(F)c(OCc4ccc(C(F)(F)F)o4)c3)nn(-c3nc(C(=O)O)cs3)c2CC2CC2)cc1F [Compound 473, 2-(5-(cyclopropylmethyl)-3-(4-fluoro-3-((5-(trifluoromethyl)furan-2-yl)methoxy)phenyl)-4-(3-fluoro-4-sulfamoylbenzyl)-1H-pyrazol-1-yl)thiazole-4-carboxylic Acid] | > 7.00 |  | > 6.00
30 | COc1cccc(-c2cc(F)cc(-c3nn(-c4nc(C(=O)O)cs4)c(CC4CC4)c3Cc3ccc(S(N)(=O)=O)cc3)c2)c1 [Compound 478, 2-(5-(cyclopropylmethyl)-3-(5-fluoro-3′-methoxy-[1,1′-biphenyl]-3-yl)-4-(4-sulfamoylbenzyl)-1H-pyrazol-1-yl)thiazole-4-carboxylic Acid] | > 7.00 |  | 5.00 to 6.00
